Experimental data from PubChem BioAssay AID1963875 (Molecular Pharmacology Branch, DTP, NCI, 2024).

Tested on: KRAS-mutant PDC complex spheroid viability
Assay: Anticancer human tumor 186277-243-T-J2-PDC patient-derived colon adenocarcinoma cell line growth inhibition [KRAS2]
Conditions: for IC50: curve of first compound; for viability, T/C: stronger effect = lower value
Method in brief: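 KRAS-mutant tumor cells were grown as spheroids with HUVEC endothelial cells and human MSCs as stroma. Targeted agents were tested alone and with KRAS pathway inhibitors. Doses started at or near clinical Cmax, or 10 microM, descending half-log.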

[1] = second compound 0.0316 µM, first compound 0.0316 µM
[2] = second compound 0.0316 µM, first compound 0.1 µM
[3] = second compound 0.0316 µM, first compound 0.316 µM
[4] = second compound 0.0316 µM, first compound 1 µM
[5] = second compound 0.0316 µM, first compound 3.16 µM
[6] = second compound 0.0316 µM, first compound 10 µM
[7] = second compound 0.1 µM, first compound 0.0316 µM
[8] = second compound 0.1 µM, first compound 0.1 µM
[9] = second compound 0.1 µM, first compound 0.316 µM
[10] = second compound 0.1 µM, first compound 1 µM
[11] = second compound 0.1 µM, first compound 3.16 µM
[12] = second compound 0.1 µM, first compound 10 µM
[13] = second compound 0.316 µM, first compound 0.0316 µM
[14] = second compound 0.316 µM, first compound 0.1 µM
[15] = second compound 0.316 µM, first compound 0.316 µM
[16] = second compound 0.316 µM, first compound 1 µM
[17] = second compound 0.316 µM, first compound 3.16 µM
[18] = second compound 0.316 µM, first compound 10 µM
[19] = second compound 1 µM, first compound 0.0316 µM
[20] = second compound 1 µM, first compound 0.1 µM
[21] = second compound 1 µM, first compound 0.316 µM
[22] = second compound 1 µM, first compound 1 µM
[23] = second compound 1 µM, first compound 3.16 µM
[24] = second compound 1 µM, first compound 10 µM
[25] = second compound 3.16 µM, first compound 0.0316 µM
[26] = second compound 3.16 µM, first compound 0.1 µM
[27] = second compound 3.16 µM, first compound 0.316 µM
[28] = second compound 3.16 µM, first compound 1 µM
[29] = second compound 3.16 µM, first compound 3.16 µM
[30] = second compound 3.16 µM, first compound 10 µM
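Wherever viability, T/C is given: viability read after seven days of compound exposure; 100% = DMSO vehicle-treated spheroids so lower means less viable.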

`CC(C)NCC(C(=O)N1CCN(c2ncnc3c2C(C)CC3O)CC1)c1ccc(Cl)cc1` (stereo not given) + C=CC(=O)N1CCN(c2nc(OCC3CCCN3C)nc3c2CCN(c2cccc4cccc(C)c24)C3)CC1CC#N was tested, and the IC50 (second compound 0.0316 µM) was 691 nM, the IC50 (second compound 0.1 µM) was 664 nM and the IC50 (second compound 0.316 µM) was 505 nM. For the same compound, the IC50 (second compound 1 µM) was 248 nM, the IC50 (second compound 3.16 µM) was under 31.6 nM and the viability, T/C [1] was 93.5%. The viability, T/C [2] was 105%, the viability, T/C [3] was 73.5% and the viability, T/C [4] was 37%. The viability, T/C [5] was 26.5%, the viability, T/C [6] was 11.2% and the viability, T/C [7] was 113%. It also gave a viability, T/C [8] of 87.8%, a viability, T/C [9] of 72.7% and a viability, T/C [10] of 36.5%. For the same compound, the viability, T/C [11] was 23.6%, the viability, T/C [12] was 12.3% and the viability, T/C [13] was 108%. For the same compound, the viability, T/C [14] was 96.3%, the viability, T/C [15] was 62.4% and the viability, T/C [16] was 29.9%. The viability, T/C [17] was 19.2%, the viability, T/C [18] was 8.67% and the viability, T/C [19] was 97.8%. It also gave a viability, T/C [20] of 104%, a viability, T/C [21] of 36.3% and a viability, T/C [22] of 18.4%. The viability, T/C [23] was 9.11%, the viability, T/C [24] was 4.64% and the viability, T/C [25] was 0.22%. The viability, T/C [26] was 0.21%, the viability, T/C [27] was 0.16% and the viability, T/C [28] was 0.13%. For the same compound, the viability, T/C [29] was 0.12% and the viability, T/C [30] was 0.21%.
With `CCNC(=O)CC1N=C(c2ccc(Cl)cc2)c2cc(OC)ccc2-n2c(C)nnc21` (stereo not given) + C=CC(=O)N1CCN(c2nc(OCC3CCCN3C)nc3c2CCN(c2cccc4cccc(C)c24)C3)CC1CC#N the IC50 (second compound 0.0316 µM) was over 10000 nM, the IC50 (second compound 0.1 µM) was over 10000 nM and the IC50 (second compound 0.316 µM) was over 10000 nM. It also gave an IC50 (second compound 1 µM) of 8180 nM, an IC50 (second compound 3.16 µM) of under 31.6 nM and a viability, T/C [1] of 100%. The viability, T/C [2] was 102%, the viability, T/C [3] was 118% and the viability, T/C [4] was 171%. The viability, T/C [5] was 151%, the viability, T/C [6] was 118% and the viability, T/C [7] was 106%. It also gave a viability, T/C [8] of 99%, a viability, T/C [9] of 113% and a viability, T/C [10] of 169%. It also gave a viability, T/C [11] of 154%, a viability, T/C [12] of 116% and a viability, T/C [13] of 99.9%. For the same compound, the viability, T/C [14] was 96.9%, the viability, T/C [15] was 125% and the viability, T/C [16] was 149%. For the same compound, the viability, T/C [17] was 130%, the viability, T/C [18] was 102% and the viability, T/C [19] was 97%. For the same compound, the viability, T/C [20] was 107%, the viability, T/C [21] was 138% and the viability, T/C [22] was 138%. The viability, T/C [23] was 93.6%, the viability, T/C [24] was 40.8% and the viability, T/C [25] was 1.32%. The viability, T/C [26] was 10.2%, the viability, T/C [27] was 1.62% and the viability, T/C [28] was 1.12%. It also gave a viability, T/C [29] of 0.2% and a viability, T/C [30] of 0.24%.
